{
  "source": "paper PMC6513986",
  "about": "“Molecular basis for heat desensitization of TRPV1 ion channels” (Nature Communications, 2019)",
  "key": {"mouse TRPV1 (mV1) [1]": {"molecular_target": "T1, mouse TRPV1 (mV1) (Mus musculus, UniProt Q704Y3)", "T1 sequence (Q704Y3 whole entry)": "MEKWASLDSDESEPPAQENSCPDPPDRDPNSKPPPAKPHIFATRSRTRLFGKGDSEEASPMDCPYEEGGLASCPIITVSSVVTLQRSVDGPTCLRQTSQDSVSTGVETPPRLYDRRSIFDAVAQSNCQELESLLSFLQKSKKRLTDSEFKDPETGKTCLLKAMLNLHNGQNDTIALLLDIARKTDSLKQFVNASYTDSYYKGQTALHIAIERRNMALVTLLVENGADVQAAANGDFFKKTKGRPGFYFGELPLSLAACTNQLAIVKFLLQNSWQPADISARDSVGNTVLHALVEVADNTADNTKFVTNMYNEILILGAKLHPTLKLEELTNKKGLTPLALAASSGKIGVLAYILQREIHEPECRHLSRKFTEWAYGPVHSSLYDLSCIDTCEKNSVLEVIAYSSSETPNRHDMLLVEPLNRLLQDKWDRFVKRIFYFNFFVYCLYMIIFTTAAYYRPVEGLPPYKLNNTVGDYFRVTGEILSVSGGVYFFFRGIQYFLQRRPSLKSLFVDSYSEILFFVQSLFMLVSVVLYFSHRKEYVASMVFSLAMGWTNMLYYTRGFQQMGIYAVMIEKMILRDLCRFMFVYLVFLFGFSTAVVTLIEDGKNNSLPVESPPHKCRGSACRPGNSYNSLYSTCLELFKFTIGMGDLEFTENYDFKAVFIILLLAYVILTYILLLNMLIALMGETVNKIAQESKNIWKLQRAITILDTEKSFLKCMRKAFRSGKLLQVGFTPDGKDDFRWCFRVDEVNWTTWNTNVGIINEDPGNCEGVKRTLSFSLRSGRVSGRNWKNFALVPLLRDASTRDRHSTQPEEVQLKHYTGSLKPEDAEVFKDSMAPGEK", "experiment": "Agonist activation, patch clamp, HEK293T", "format": "cell-based", "settings": "read-out: EC50_Capsaicin"}, "platypus TRPV1 (pV1)": {"molecular_target": "platypus TRPV1 (pV1) (Ornithorhynchus anatinus, UniProt F7A7B4)", "experiment": "Agonist activation, patch clamp, HEK293T", "format": "cell-based", "settings": "for EC50_Capsaicin: Supp Table 1 data"}, "Fruit bat TRPV1": {"molecular_target": "Fruit bat TRPV1 (Carollia brevicauda, UniProt G1DJ79)", "sequence (G1DJ79 1-838)": "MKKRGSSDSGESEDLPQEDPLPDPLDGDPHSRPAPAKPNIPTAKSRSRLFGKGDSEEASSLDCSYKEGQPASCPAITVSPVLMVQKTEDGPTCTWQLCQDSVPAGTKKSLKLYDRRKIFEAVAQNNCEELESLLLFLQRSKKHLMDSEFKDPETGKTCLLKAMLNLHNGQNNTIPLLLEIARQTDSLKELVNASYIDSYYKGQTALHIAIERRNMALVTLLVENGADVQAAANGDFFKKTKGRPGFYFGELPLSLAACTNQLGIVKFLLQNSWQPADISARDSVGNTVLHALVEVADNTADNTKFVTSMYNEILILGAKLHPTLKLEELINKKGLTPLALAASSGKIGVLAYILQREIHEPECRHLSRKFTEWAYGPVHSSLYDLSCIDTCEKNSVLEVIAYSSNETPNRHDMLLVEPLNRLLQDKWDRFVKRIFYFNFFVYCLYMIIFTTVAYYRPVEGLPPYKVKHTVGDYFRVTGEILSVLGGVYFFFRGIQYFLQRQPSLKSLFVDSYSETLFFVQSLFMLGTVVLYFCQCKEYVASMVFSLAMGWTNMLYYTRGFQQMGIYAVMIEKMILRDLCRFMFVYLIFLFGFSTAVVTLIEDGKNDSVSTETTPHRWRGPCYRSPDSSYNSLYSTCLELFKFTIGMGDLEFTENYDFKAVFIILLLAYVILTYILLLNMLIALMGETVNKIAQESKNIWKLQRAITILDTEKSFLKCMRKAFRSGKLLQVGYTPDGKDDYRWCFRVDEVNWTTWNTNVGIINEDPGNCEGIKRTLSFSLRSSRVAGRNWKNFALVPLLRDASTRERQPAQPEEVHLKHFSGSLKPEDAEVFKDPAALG", "experiment": "Agonist activation, patch clamp, HEK293T", "format": "cell-based", "settings": "read-out: EC50_Capsaicin"}, "Tree shrew TRPV1": {"molecular_target": "Tree shrew TRPV1 (Tupaia chinensis, UniProt L8Y7X1)", "sequence (L8Y7X1 1-828)": "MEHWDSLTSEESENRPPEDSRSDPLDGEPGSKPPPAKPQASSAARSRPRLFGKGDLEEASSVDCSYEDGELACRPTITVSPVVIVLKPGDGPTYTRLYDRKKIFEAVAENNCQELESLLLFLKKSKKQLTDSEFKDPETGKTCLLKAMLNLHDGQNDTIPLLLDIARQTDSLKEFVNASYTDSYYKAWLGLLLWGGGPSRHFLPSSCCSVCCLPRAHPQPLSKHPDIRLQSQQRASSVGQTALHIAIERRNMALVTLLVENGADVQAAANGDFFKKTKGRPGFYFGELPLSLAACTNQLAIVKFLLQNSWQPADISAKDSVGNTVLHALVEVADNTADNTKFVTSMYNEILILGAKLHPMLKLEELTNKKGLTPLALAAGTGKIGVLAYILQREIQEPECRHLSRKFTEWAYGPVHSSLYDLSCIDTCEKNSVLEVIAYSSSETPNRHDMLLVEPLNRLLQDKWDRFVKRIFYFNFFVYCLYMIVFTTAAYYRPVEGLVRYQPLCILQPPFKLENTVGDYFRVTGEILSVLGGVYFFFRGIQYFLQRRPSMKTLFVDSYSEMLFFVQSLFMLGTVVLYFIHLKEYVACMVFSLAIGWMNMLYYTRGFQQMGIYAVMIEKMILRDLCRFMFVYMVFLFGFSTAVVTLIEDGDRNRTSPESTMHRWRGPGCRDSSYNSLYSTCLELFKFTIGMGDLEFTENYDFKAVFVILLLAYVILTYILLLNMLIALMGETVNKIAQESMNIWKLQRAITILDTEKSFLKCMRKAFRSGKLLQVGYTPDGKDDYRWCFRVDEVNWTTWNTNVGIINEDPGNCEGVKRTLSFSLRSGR", "experiment": "Agonist activation, patch clamp, HEK293T", "format": "cell-based, Tupaia belangeri chinensis", "settings": "read-out: EC50_Capsaicin"}, "Camel TRPV1": {"molecular_target": "Camel TRPV1 (Camelus ferus, UniProt A0A8B8UHM1)", "sequence (A0A8B8UHM1 1-838)": "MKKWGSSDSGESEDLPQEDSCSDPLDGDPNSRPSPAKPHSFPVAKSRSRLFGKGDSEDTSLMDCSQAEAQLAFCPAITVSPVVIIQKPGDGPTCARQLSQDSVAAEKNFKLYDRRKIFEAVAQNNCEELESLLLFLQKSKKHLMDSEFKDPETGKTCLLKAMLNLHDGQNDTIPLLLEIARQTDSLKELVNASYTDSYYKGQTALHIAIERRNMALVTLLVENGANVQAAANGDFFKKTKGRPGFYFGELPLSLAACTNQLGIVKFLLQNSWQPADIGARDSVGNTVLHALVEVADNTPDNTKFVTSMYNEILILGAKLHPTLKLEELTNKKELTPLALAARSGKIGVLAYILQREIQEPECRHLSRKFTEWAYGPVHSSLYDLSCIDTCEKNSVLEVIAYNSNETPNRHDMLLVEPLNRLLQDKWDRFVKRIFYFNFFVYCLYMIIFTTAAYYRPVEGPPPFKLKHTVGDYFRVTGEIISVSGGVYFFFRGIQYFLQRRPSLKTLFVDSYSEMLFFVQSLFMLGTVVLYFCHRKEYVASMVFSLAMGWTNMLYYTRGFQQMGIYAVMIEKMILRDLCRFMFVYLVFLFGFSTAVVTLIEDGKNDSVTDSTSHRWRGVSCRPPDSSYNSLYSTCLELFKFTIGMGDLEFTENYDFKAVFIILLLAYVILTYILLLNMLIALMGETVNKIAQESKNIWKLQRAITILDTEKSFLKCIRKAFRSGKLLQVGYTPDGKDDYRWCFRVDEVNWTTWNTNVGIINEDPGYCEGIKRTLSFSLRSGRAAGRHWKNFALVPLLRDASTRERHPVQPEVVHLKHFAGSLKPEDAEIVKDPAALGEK", "experiment": "Agonist activation, patch clamp, HEK293T", "format": "cell-based", "settings": "read-out: EC50_Capsaicin"}, "pV1_mNC chimera": {"molecular_target": "pV1_mNC chimera (Ornithorhynchus anatinus, UniProt F7A7B4)", "experiment": "Agonist activation, patch clamp, HEK293T", "format": "cell-based, platypus / mouse", "settings": "read-out: EC50_Capsaicin"}, "mV1 CΔ28 (Ala800-Ala827)": {"molecular_target": "mV1 CΔ28 (Ala800-Ala827) (Mus musculus, UniProt Q704Y3, DEL800-827)", "sequence (Q704Y3 with tags, fused parts or gaps DEL800-827)": "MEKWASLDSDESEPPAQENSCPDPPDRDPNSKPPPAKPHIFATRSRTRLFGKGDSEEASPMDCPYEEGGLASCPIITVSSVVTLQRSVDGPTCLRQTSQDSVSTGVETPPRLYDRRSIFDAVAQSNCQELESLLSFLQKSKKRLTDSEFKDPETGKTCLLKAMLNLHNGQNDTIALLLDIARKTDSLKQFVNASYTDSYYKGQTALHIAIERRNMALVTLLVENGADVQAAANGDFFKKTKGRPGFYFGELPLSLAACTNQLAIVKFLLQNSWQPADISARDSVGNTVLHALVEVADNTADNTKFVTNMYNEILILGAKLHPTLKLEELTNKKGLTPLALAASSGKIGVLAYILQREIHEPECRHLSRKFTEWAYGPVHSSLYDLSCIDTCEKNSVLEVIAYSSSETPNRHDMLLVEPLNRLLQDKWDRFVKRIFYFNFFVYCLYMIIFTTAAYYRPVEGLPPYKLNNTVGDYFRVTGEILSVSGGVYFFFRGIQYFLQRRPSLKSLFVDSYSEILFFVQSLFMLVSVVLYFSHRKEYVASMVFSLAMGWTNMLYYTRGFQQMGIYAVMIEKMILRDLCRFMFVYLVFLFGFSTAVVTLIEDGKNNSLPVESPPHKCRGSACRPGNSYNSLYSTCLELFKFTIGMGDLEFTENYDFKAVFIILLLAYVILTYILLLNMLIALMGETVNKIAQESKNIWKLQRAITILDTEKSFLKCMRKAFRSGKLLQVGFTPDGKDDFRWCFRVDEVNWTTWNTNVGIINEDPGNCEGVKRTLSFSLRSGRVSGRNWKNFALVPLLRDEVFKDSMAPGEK", "experiment": "Agonist activation, patch clamp, HEK293T", "format": "cell-based", "settings": "read-out: EC50_Capsaicin"}, "mV1 CΔ10 (Phe830-Lys839)": {"molecular_target": "mV1 CΔ10 (Phe830-Lys839) (Mus musculus, UniProt Q704Y3)", "sequence (Q704Y3 1-829, stated change not applied)": "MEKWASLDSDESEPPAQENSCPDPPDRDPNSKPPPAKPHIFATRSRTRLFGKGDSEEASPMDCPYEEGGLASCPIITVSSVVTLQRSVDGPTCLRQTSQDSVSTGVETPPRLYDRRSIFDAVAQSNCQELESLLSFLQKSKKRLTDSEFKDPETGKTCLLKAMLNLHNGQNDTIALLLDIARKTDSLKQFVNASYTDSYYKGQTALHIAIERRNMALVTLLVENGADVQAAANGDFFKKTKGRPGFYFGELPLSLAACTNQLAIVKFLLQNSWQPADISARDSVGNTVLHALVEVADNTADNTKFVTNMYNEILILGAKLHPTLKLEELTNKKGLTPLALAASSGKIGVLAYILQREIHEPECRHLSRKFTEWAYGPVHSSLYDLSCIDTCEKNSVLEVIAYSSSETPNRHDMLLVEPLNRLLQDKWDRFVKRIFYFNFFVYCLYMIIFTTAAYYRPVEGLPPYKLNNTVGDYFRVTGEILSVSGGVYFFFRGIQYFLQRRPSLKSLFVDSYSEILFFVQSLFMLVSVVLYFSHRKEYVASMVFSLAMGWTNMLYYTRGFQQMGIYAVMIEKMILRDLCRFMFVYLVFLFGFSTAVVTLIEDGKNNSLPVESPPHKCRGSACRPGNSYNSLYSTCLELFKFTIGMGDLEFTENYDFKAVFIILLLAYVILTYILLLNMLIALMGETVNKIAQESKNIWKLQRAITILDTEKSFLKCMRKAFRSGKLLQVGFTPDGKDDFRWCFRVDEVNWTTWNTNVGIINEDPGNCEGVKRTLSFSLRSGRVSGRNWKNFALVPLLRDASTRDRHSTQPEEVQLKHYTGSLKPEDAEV", "experiment": "Agonist activation, patch clamp, HEK293T", "format": "cell-based", "settings": "read-out: EC50_Capsaicin"}, "mV1 S116A": {"molecular_target": "mV1 S116A (Mus musculus, UniProt Q704Y3, S117A)", "sequence (Q704Y3 whole entry S117A)": "as the sequence (Q704Y3 whole entry) above, with S117A counted along it", "experiment": "Agonist activation, patch clamp, HEK293T", "format": "cell-based", "settings": "read-out: EC50_Capsaicin"}, "mV1 D832A": {"molecular_target": "mV1 D832A (Mus musculus, UniProt Q704Y3, D832A)", "experiment": "Agonist activation, patch clamp, HEK293T", "format": "cell-based", "settings": "read-out: EC50_Capsaicin"}, "mV1 S833A": {"molecular_target": "mV1 S833A (Mus musculus, UniProt Q704Y3, S833A)", "experiment": "Agonist activation, patch clamp, HEK293T", "format": "cell-based", "settings": "read-out: EC50_Capsaicin"}, "mV1 K839A": {"molecular_target": "mV1 K839A (Mus musculus, UniProt Q704Y3, K839A)", "sequence (Q704Y3 whole entry K839A)": "as the sequence (Q704Y3 whole entry) above, with K839A counted along it", "experiment": "Agonist activation, patch clamp, HEK293T", "format": "cell-based", "settings": "read-out: EC50_Capsaicin"}, "mV1_579 (ANAP)": {"molecular_target": "mV1_579 (ANAP) (Mus musculus, UniProt Q704Y3, C579X)", "experiment": "Agonist activation of ANAP-incorporated channel, patch clamp", "format": "cell-based"}, "mV1_648 (ANAP)": {"molecular_target": "mV1_648 (ANAP) (Mus musculus, UniProt Q704Y3, L648X)", "experiment": "Agonist activation of ANAP-incorporated channel, patch clamp", "format": "cell-based"}, "mouse TRPV1 (mV1) [2]": {"molecular_target": "T1, mouse TRPV1 (mV1)", "settings": "cited from earlier work", "protocol": "The heat activation threshold of pV1, at ~35 °C, is slightly higher than the body core temperature of platypus (32 °C)[17],[18] (Fig. 1b, c), again reminiscent of ot ..."}},
  "note": "Where two headings read alike, the source gives them in different places.",
  "data": [
    {"smiles": "COc1cc(CNC(=O)CCCC/C=C/C(C)C)ccc1O", "note": "[Capsaicin, capsaicin]", "values": [
      {"measurement": "EC50", "setting": "mouse TRPV1 (mV1) [1]; Supp Table 1 data, replicate 1", "value": 0.249, "unit": "µM"},
      {"measurement": "EC50", "setting": "mouse TRPV1 (mV1) [1]; Supp Table 1 data, replicate 2", "value": 0.299, "unit": "µM"},
      {"measurement": "EC50", "setting": "mouse TRPV1 (mV1) [1]; Supp Table 2 data, replicate 1", "value": 0.277, "unit": "µM"},
      {"measurement": "EC50", "setting": "mouse TRPV1 (mV1) [1]; Supp Table 2 data, replicate 2", "value": 0.302, "unit": "µM"},
      {"measurement": "EC50", "setting": "mouse TRPV1 (mV1) [1]; Supp Table 3 data, replicate 1", "value": 0.276, "unit": "µM"},
      {"measurement": "EC50", "setting": "mouse TRPV1 (mV1) [1]; Supp Table 3 data, replicate 2", "value": 0.306, "unit": "µM"},
      {"measurement": "EC50", "setting": "mouse TRPV1 (mV1) [1]; Supp Table 3 data, replicate 3", "value": 0.315, "unit": "µM"},
      {"measurement": "EC50", "setting": "mouse TRPV1 (mV1) [1]; Supp Table 4 data, replicate 1", "value": 0.297, "unit": "µM"},
      {"measurement": "EC50", "setting": "mouse TRPV1 (mV1) [1]; Supp Table 4 data, replicate 2", "value": 0.279, "unit": "µM"},
      {"measurement": "EC50", "setting": "mouse TRPV1 (mV1) [1]; Supp Table 4 data, replicate 3", "value": 0.321, "unit": "µM"},
      {"measurement": "EC50_Capsaicin", "setting": "platypus TRPV1 (pV1); replicate 1", "value": 0.367, "unit": "µM"},
      {"measurement": "EC50_Capsaicin", "setting": "platypus TRPV1 (pV1); replicate 2", "value": 0.246, "unit": "µM"},
      {"measurement": "EC50_Capsaicin", "setting": "platypus TRPV1 (pV1); replicate 4", "value": 0.271, "unit": "µM"},
      {"measurement": "EC50_Capsaicin", "setting": "platypus TRPV1 (pV1); replicate 5", "value": 0.368, "unit": "µM"},
      {"measurement": "activation of pV1 by capsaicin", "setting": "platypus TRPV1 (pV1); whole-cell, 10 μM", "value": "currents elicited"},
      {"measurement": "EC50", "setting": "Fruit bat TRPV1; mean ± s.e.m., n = 6", "value": "0.354 ± 0.025", "unit": "µM"},
      {"measurement": "EC50", "setting": "Fruit bat TRPV1; replicate 1", "value": 0.273, "unit": "µM"},
      {"measurement": "EC50", "setting": "Fruit bat TRPV1; replicate 2", "value": 0.389, "unit": "µM"},
      {"measurement": "EC50", "setting": "Fruit bat TRPV1; replicate 3", "value": 0.419, "unit": "µM"},
      {"measurement": "EC50", "setting": "Fruit bat TRPV1; replicate 4", "value": 0.415, "unit": "µM"},
      {"measurement": "EC50", "setting": "Fruit bat TRPV1; replicate 5", "value": 0.274, "unit": "µM"},
      {"measurement": "EC50", "setting": "Fruit bat TRPV1; replicate 6", "value": 0.354, "unit": "µM"},
      {"measurement": "EC50", "setting": "Tree shrew TRPV1; mean ± s.e.m., n = 3", "value": 5.26, "unit": "µM"},
      {"measurement": "EC50", "setting": "Tree shrew TRPV1; replicate 1", "value": 4.932, "unit": "µM"},
      {"measurement": "EC50", "setting": "Tree shrew TRPV1; replicate 2", "value": 5.507, "unit": "µM"},
      {"measurement": "EC50", "setting": "Tree shrew TRPV1; replicate 3", "value": 5.341, "unit": "µM"},
      {"measurement": "EC50", "setting": "Camel TRPV1; mean ± s.e.m., n = 5", "value": 0.54, "unit": "µM"},
      {"measurement": "EC50", "setting": "Camel TRPV1; replicate 1", "value": 0.445, "unit": "µM"},
      {"measurement": "EC50", "setting": "Camel TRPV1; replicate 2", "value": 0.443, "unit": "µM"},
      {"measurement": "EC50", "setting": "Camel TRPV1; replicate 3", "value": 0.562, "unit": "µM"},
      {"measurement": "EC50", "setting": "Camel TRPV1; replicate 4", "value": 0.619, "unit": "µM"},
      {"measurement": "EC50", "setting": "Camel TRPV1; replicate 5", "value": 0.631, "unit": "µM"},
      {"measurement": "EC50", "setting": "pV1_mNC chimera; mean ± s.e.m., n = 6", "value": 0.306, "unit": "µM"},
      {"measurement": "EC50", "setting": "pV1_mNC chimera; replicate 3", "value": 0.3, "unit": "µM"},
      {"measurement": "EC50", "setting": "pV1_mNC chimera; replicate 4", "value": 0.276, "unit": "µM"},
      {"measurement": "EC50", "setting": "mV1 CΔ28 (Ala800-Ala827); mean ± s.e.m., n = 3", "value": 0.343, "unit": "µM"},
      {"measurement": "EC50", "setting": "mV1 CΔ28 (Ala800-Ala827); replicate 1", "value": 0.256, "unit": "µM"},
      {"measurement": "EC50", "setting": "mV1 CΔ28 (Ala800-Ala827); replicate 2", "value": 0.365, "unit": "µM"},
      {"measurement": "EC50", "setting": "mV1 CΔ28 (Ala800-Ala827); replicate 3", "value": 0.408, "unit": "µM"},
      {"measurement": "EC50", "setting": "mV1 CΔ10 (Phe830-Lys839); mean ± s.e.m., n = 6", "value": 0.354, "unit": "µM"},
      {"measurement": "EC50", "setting": "mV1 CΔ10 (Phe830-Lys839); replicate 1", "value": 0.215, "unit": "µM"},
      {"measurement": "EC50", "setting": "mV1 CΔ10 (Phe830-Lys839); replicate 3", "value": 0.313, "unit": "µM"},
      {"measurement": "EC50", "setting": "mV1 CΔ10 (Phe830-Lys839); replicate 4", "value": 0.407, "unit": "µM"},
      {"measurement": "EC50", "setting": "mV1 CΔ10 (Phe830-Lys839); replicate 5", "value": 0.457, "unit": "µM"},
      {"measurement": "EC50", "setting": "mV1 CΔ10 (Phe830-Lys839); replicate 6", "value": 0.463, "unit": "µM"},
      {"measurement": "EC50", "setting": "mV1 S116A; mean ± s.e.m., n = 3", "value": 0.186, "unit": "µM"},
      {"measurement": "EC50", "setting": "mV1 S116A; replicate 1", "value": 0.191, "unit": "µM"},
      {"measurement": "EC50", "setting": "mV1 S116A; replicate 2", "value": 0.161, "unit": "µM"},
      {"measurement": "EC50", "setting": "mV1 S116A; replicate 3", "value": 0.206, "unit": "µM"},
      {"measurement": "EC50", "setting": "mV1 D832A; mean ± s.e.m., n = 3", "value": 0.361, "unit": "µM"},
      {"measurement": "EC50", "setting": "mV1 D832A; replicate 1", "value": 0.372, "unit": "µM"},
      {"measurement": "EC50", "setting": "mV1 D832A; replicate 2", "value": 0.282, "unit": "µM"},
      {"measurement": "EC50", "setting": "mV1 D832A; replicate 3", "value": 0.429, "unit": "µM"},
      {"measurement": "EC50", "setting": "mV1 S833A; mean ± s.e.m., n = 3", "value": 0.344, "unit": "µM"},
      {"measurement": "EC50", "setting": "mV1 S833A; replicate 1", "value": 0.361, "unit": "µM"},
      {"measurement": "EC50", "setting": "mV1 S833A; replicate 2", "value": 0.282, "unit": "µM"},
      {"measurement": "EC50", "setting": "mV1 S833A; replicate 3", "value": 0.389, "unit": "µM"},
      {"measurement": "EC50", "setting": "mV1 K839A; mean ± s.e.m., n = 3", "value": 0.293, "unit": "µM"},
      {"measurement": "EC50", "setting": "mV1 K839A; replicate 1", "value": 0.268, "unit": "µM"},
      {"measurement": "EC50", "setting": "mV1 K839A; replicate 2", "value": 0.292, "unit": "µM"},
      {"measurement": "EC50", "setting": "mV1_579 (ANAP)", "value": 0.293, "unit": "µM"},
      {"measurement": "EC50_Capsaicin", "setting": "mV1_579 (ANAP); replicate 2", "value": 0.297, "unit": "µM"},
      {"measurement": "EC50", "setting": "mV1_648 (ANAP)", "value": 0.296, "unit": "µM"},
      {"measurement": "EC50_Capsaicin", "setting": "mV1_648 (ANAP); replicate 1", "value": 0.301, "unit": "µM"},
      {"measurement": "EC50_Capsaicin", "setting": "mV1_648 (ANAP); replicate 2", "value": 0.286, "unit": "µM"},
      {"measurement": "EC50_Capsaicin", "setting": "mV1_648 (ANAP); replicate 3", "value": 0.312, "unit": "µM"},
      {"measurement": "EC50_Capsaicin", "setting": "mV1_648 (ANAP); replicate 5", "value": 0.289, "unit": "µM"},
      {"measurement": "capsaicin sensitivity of heat-desensitized channels", "setting": "mouse TRPV1 (mV1) [2]", "value": "less sensitive"}
    ]}
  ]
}
